Reference: patent US10973863B2, “Method for regulating, preventing and/or treating pulmonary injury” (SINPHAR PHARMACEUTICAL CO., LTD., priority 2017, dated 2021)

Assays:
MMP-9 = assay: Gelatin zymography: LPS-activated active expression of MMP-9 in NR8383 cells; format: cell-based, rat; conditions: Table 5, LPS 1 μg/mL, 24 hours
Source text: As indicated above, when an inflammatory response occurs in animal's pulmonary tissue, the active inflammatory cells will secret MMPs that will destroy the pulmonary tissue structure, cause more serious pulmonary injury, and lead to the decrement in or the loss of pulmonary functions. […]
Thereafter, the medium of each group was collected and respectively subjected to the following procedures. A 10% polyacrylamide gel containing 0.2% gelatin was used to carry out the sodium dodecyl sulfate polyacrylamide gel electrophoresis (SDS-PAGE). After the electrophoresis was completed, the gel was sequentially soaked in 2.5% Triton X-100 solution for 90 minutes to remove SDS, soaked in distillation-distillation water (ddH2O) for 30 minutes, and placed in a reaction solution (50 mM Tris-HCl buffer containing 10 mM CaCl2 and 0.02% NaN3) at a temperature of 37° C. for 18 hours. After the foregoing reaction was completed, the gel was stained by a Coomassie blue staining solution, and the image of stained gel was taken and subjected to an image analysis. The image intensity (the image intensity was calculated based on the size of area and the shade of color) of highlight band (i.e., the gelatin in this area was degraded by MMPs, wherein the area locating around 95 kD molecular weight) on the gel of each group can reflect the active expression of MMP-9 of rat alveolar macrophage NR8383 cells under different conditions (the relative active expression of MMP-9 was calculated by serving the results of the blank group as 0% and serving that of the control group as 100%).
Rat alveolar macrophage NR8383 cells were divided into twenty-eight groups and separately cultivated with the following media for 24 hours: • (1) Blank group: a macrophage growth medium; • (2) Control group: a macrophage growth medium containing 1 μg/mL LPS; • (3) Positive control group: a macrophage growth medium containing 1 μg/mL LPS and 5 μM Prednisolone (a type of corticosteroid; abbreviated as “Pred”; purchased from Sigma-Aldrich); • (4) Extract C (including five sub-groups): a macrophage growth medium containing 1 μg/mL LPS and the extract C provided by [preparation example A-3-2], wherein the extract C is present in the five sub-groups at a concentration of […] respectively; • (5) Extract D (including five sub-groups): a macrophage growth medium containing 1 μg/mL UPS and the extract D provided by [preparation example A-4-2], wherein the extract D is present in the five sub-groups at a concentration of 0.78, 1.56, 3.13, 6.25 and 12.5 respectively; • (6) Extract E (including five sub-groups): a macrophage growth medium containing 1 μg/mL LPS and the extract E provided from [preparation example A-4-3], wherein the extract E is present in the five sub-groups at a concentration of 0.78, 1.56, 3.13, […], and 12.5 respectively; • (7) DATA group (including five sub-groups): a macrophage growth medium containing 1 μg/mL LPS and the dehydrotrametenolic acid (DTTA) provided by [preparation example C-1], wherein the dehydrotrametenolic acid (DTTA) is present in the five sub-groups at a concentration of 0.39, 0.78, 1.56, 3.13 and 6.25 μg/mL respectively; and • (8) PAA group (including live sub-groups): a macrophage growth medium containing 1 μg/mL LPS and the poricoic acid A (PAA) provided from [preparation example C-1], wherein the poricoic acid A (PAA) is present in the five sub-groups at a concentration of 6.25, 12.5, 25, 50 and 100 respectively.
Thereafter, the medium of each group was collected and analyzed by the analyzing procedures same as that of (1-1).

Mucin 5AC = assay: Western blot: LPS-induced expression of Mucin 5AC in NCI-H929 cells; format: cell-based, human; conditions: 1 μg/mL LPS, 24 hours, vs control group
Source text: As indicated above, the hypersecretion of mucus in airway can be observed in the patients suffering from pulmonary injury-related diseases, such as chronic obstructive pulmonary disease and emphysema, and the mucus hypersecretion is associated with the overexpression of mucins in pulmonary tissue. Symptoms like the increased sputum production will occur in the patients suffering from the mucin hypersecretion in airway, and the increased sputum will accumulate in the airway and lung, thereby making the airway narrow and increasing respiratory resistance. To investigate the effects of active ingredients of FU-LING extract in regulating, preventing, and/or treating the pulmonary injury-related diseases, such as chronic obstructive pulmonary disease and emphysema, a Western blot was conducted to measure the inhibitory rate of active ingredients of FU-LING extract (tumulosic acid and poricoic acid A) on the LPS-induced expression of Mucin 5AC in human lung epithelial NCI-H929 cells.
Human lung epithelial NCI-H929 cells were divided into ten groups and separately cultivated with the following media for 24 hours:
(1) Control group: an epithelial cell growth medium containing […];
(2) Positive control group: an epithelial cell growth medium containing 1 μg/mL LPS and 10 μM Dex;
(3) TA group (including four sub-groups): an epithelial cell growth medium containing […] the tumulosic acid (TA) provided by [preparation example C-1], wherein the tumulosic acid (TA) is present in the four sub-groups at a concentration of 1.56, 3.13, 6.25 and 12.5 μg/mL respectively; and
(4) PAA group (including four sub-groups): an epithelial cell growth medium containing 1 μg/mL LPS the poricoic acid A (PAA) provided by [preparation example C-1], wherein the poricoic acid A (PAA) is present in the four sub-groups at a concentration of 6.25, 12.5, 25 and 50 μg/mL respectively.
Thereafter, the proteins in the cells of each group were extracted and then subjected to a Western blot to measure the expression level of Mucin 5AC. The relative expression level of Mucin 5AC of each group was calculated by using the results of the control group as a basis (i.e., the expression level of control group was served as 1-fold).

C=C(CC[C@@H](C(=O)O)[C@H]1[C@H](O)C[C@@]2(C)C3=CC[C@@H](C(=C)C)[C@](C)(CCC(=O)O)C3=CC[C@]12C)C(C)C [PAA, poricoic acid A]
Relative active expression of MMP-9 (%) (MMP-9; 6.25 μg/mL): 82% | Relative active expression of MMP-9 (%) (MMP-9; 12.5 μg/mL): 77% | Relative active expression of MMP-9 (%) (MMP-9; 25 μg/mL): 60% | Relative active expression of MMP-9 (%) (MMP-9; 50 μg/mL): 35% | Relative active expression of MMP-9 (%) (MMP-9; 100 μg/mL): 18% | Inhibitory rate on LPS-induced expression of Mucin 5AC (Mucin 5AC; 6.25 μg/mL (low-dose)): up to 63% | Inhibitory rate on LPS-induced expression of Mucin 5AC (Mucin 5AC; 50 μg/mL (high-dose)): ≤ 87%
